Counter-ions that a name gives are not always drawn.

Here are results for two compounds from US8557847B2, “Synergistic modulation of FLT3 kinase using a FLT3 inhibitor and a farnesyl transferase inhibitor” (Janssen Pharmaceutica, N.V., priority 2005, dated 2013).

Assay [1] relates to Baf3-FLT3 cells stimulated with FLT ligand. Kind of assay: 72-hour cell proliferation assay, single agents and FTI/FLT3 inhibitor combinations, Baf3-FLT3. In kind it is cell-based, murine. Conditions: with single sub-IC50 dose of FLT3 inhibitor Compound A (100 nM). Here is the method:
Dose responses for the individual compounds alone were determined for each cell line using a standard 72-hour cell proliferation assay (see FIGS. 6.1-6.8). The standard chemotherapeutic agent Cytarabine was used as a control cytotoxic agent in all experiments. […] The FLT3 inhibitors, Compounds A, B, C, D, E, F G and H, individually have good potency (sub-micromolar) for the inhibition of FLT3 driven proliferation (compared to the first line cytotoxic agent Cytarabine and Tipifarnib) in cells that depend on FLT3 for growth. Each of these chemically distinct compounds alone has potential for the treatment of disorders related to FLT3, such as FLT3 positive AML. […]
To statistically evaluate the synergy of a FLT3 inhibitor and an FTI in FLT3 dependent cell lines, dosing combinations were evaluated by the method of Chou and Talalay. See Chou T C, Talalay P. (1984) “Quantitative analysis of dose-effect relationships: the combined effects of multiple drugs or enzyme inhibitors.” Adv Enzyme Regul. […] Using this method, multiple FTI and FLT3 combinations were evaluated. […]
Cell proliferation assay for MV4-11, Baf3-ITD, Baf3-FLT3 and THP-1 cells. […] Total cell growth is quantified as the difference in luminescent counts (relative light units, RLU) of cell number at Day 0 compared to total cell number at Day 3 (72 hours of growth and/or compound treatment). […]

Assay [2] has as its target T1, isolated kinase domain of the human FLT3 receptor (a.a. 571-993) (Homo sapiens, UniProt P36888).
T1 construct: human FLT3 receptor (a.a. 571-993)
T1 sequence (P36888 571-993): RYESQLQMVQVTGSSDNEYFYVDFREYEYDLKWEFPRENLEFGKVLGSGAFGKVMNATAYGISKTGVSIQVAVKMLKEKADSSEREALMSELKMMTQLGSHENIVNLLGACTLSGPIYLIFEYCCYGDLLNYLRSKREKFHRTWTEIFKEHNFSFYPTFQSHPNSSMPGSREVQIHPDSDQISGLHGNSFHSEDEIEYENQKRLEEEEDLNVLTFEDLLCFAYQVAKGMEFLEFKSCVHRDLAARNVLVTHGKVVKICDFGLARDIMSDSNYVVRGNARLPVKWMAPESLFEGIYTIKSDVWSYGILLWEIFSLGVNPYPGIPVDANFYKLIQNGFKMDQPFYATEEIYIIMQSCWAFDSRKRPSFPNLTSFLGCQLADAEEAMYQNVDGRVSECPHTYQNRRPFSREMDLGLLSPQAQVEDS
Kind of assay: FLT3 fluorescence polarization kinase assay. In kind it is biochemical. Conditions: 150 uM ATP; uncertainty ±10%; read-out: Flt-3 IC50. From the text: The FLT3 FP assay utilizes the fluorescein-labeled phosphopeptide and the anti-phosphotyrosine antibody included in the Panvera Phospho-Tyrosine Kinase Kit (Green) supplied by Invitrogen. When FLT3 phosphorylates polyGlu4Tyr, the fluorescein-labeled phosphopeptide is displaced from the anti-phosphotyrosine antibody by the phosphorylated poly Glu4Tyr, thus decreasing the FP value. […] The kinase reaction is stopped with the addition of EDTA. The fluorescein-labeled phosphopeptide and the anti-phosphotyrosine antibody are added and incubated for 30 minutes at room temperature.
Data points are an average of triplicate samples. Inhibition and IC50 data analysis was done with GraphPad Prism using a non-linear regression fit with a multiparamater, sigmoidal dose-response (variable slope) equation.
(In fluorescence polarisation assays a small probe gives low polarisation when free and higher when bound to something large.)

Assay [3] deals with T2, wild-type FLT3 phosphorylation in Baf3 FLT3 cells (Homo sapiens, UniProt P36888).
T2 construct: host or cells: Baf3 (murine B cell lymphoma line)
T2 sequence (P36888 27-993): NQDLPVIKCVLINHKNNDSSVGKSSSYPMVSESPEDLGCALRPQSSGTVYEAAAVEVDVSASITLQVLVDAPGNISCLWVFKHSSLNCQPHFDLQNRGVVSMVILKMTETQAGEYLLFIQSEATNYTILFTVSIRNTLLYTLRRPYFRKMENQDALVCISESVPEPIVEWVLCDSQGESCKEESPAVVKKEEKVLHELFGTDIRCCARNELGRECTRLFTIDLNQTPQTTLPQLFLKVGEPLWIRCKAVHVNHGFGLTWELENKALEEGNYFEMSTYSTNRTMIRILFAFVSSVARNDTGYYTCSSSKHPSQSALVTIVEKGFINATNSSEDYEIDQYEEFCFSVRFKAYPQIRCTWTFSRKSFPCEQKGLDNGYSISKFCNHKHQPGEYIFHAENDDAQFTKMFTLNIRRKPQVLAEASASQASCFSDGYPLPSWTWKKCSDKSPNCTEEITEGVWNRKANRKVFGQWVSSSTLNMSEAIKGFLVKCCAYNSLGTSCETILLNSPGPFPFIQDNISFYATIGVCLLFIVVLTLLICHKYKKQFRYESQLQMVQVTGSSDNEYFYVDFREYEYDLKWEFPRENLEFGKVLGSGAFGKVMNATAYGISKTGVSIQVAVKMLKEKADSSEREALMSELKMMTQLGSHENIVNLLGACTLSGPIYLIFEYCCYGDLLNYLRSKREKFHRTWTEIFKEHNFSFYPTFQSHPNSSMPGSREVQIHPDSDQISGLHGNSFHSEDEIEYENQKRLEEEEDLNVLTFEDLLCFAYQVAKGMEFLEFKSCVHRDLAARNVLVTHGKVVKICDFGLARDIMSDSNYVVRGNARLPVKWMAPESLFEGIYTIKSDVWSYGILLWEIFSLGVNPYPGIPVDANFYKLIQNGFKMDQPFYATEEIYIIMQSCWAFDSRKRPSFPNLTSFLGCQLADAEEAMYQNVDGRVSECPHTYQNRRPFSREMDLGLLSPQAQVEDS
Briefly: Cell-based FLT3 receptor ELISA. Conditions: uncertainty ±20%. The source says:
Data points are an average of triplicate samples. […] Leukemia.

Turning to `Cn1cncc1[C@@](N)(c1ccc(Cl)cc1)c1ccc2c(c1)c(-c1cccc(Cl)c1)cc(=O)n2C` (single isomer, unassigned) [Tipifarnib, reference compound], in assay [1], the “increase in potency of Tipifarnib” value is on record as “more than 3 fold”.
By IC50 is commonly meant the concentration that inhibits the measured activity by half. With `N#Cc1c[nH]c(C(=O)Nc2ccc(C3CCNCC3)cc2C2=CCCCC2)n1` [Compound 14, 4-Cyano-1H-imidazole-2-carboxylic acid (2-cyclohex-1-enyl-4-piperidin-4-yl-phenyl)-amide trifluoroacetic acid salt], the results for the IC50 in assay [2] and in assay [3] were 0.032 µM and 0.77 µM, respectively.
